Data taken from patent US9636311B2, “N,N′-di-1 naphthylguanidine HCl (NAGH) and N,N′-di-p-nitrophenylguanidine HCl (NAD) treatment for stroke at delayed timepoints” (University of South Florida, priority 2012, dated 2017).
Read-outs that look alike come from different tables or passages of the source.

Key:
[1] = system: rats following MCAO; assay: Iba1 immunostaining of microglia after MCAO; type: in vivo, rat; settings: 30 days after stroke; p>0.05
Experimental: MCAO surgeries were performed as described elsewhere (Vendrame M, Cassady C J, Newcomb J, Butler T, Pennypacker K R, Zigova T, et al. Stroke. 2004; 35:2390-2395). Briefly, rats were anesthetized with isoflurane, and the right common carotid and external carotid arteries were exposed using blunt dissection techniques. The vagus nerve was separated from common carotid artery and the external carotid artery was ligated proximally, and transected near the bifurcation. An embolus 40 mm in length (4.0 siliconized monofilament) was inserted into the external carotid artery and fed distally into the origin of the middle cerebral artery (˜25 mm from insertion) through the internal carotid artery. Blood samples were taken and analyzed using an i-STAT handheld analyzer for hemoglobin, hematocrit, ionized calcium, glucose, sodium, potassium, pH, pCO2, HCO3, TCO2, base excess, pO2, and O2. Cerebral blood flow was recorded using a Laser Doppler Monitor (Moor Instruments) to verify occlusion. […]
Anti-Iba1 (1:500; Wako 019-19741) immunocytochemistry was used for the specific identification of microglia. […] Iba-1 positive cells were quantified (n=12) as previously detailed by Smirkin et al. (Smirkin, Matsumoto et al. 2010) with little modification. […] Total number of Iba-1 positive cells were counted manually by two observer using ImagePro plus software.

[2] = system: microglial cells; assay: Inhibition of microglial migration evoked by ATP; type: cell-based
Experimental: (§1) FIG. 8 is a series of images confirming NAGH acts as a sigma receptor agonist. A) Concentration-response relationship for NAGH (closed circles) and DTG (open circles) inhibition of microglial migration evoked by 100 μM ATP. […] Points represent mean (±SEM) and for all points, n>9. B) Bar graph of the mean (±SEM) number of microglial cells migrating in response to 100 μM ATP when ATP was added alone (DMEM) or in the presence of 100 μM NAGH. Microglia were further exposed to no σ antagonist (Control), or the σ-1 antagonist, BD-1047 (10 μM, BD-1047), or the σ-2 antagonist, rimcazole (10 μM, Rimcazole). Asterisks denote significant difference between DMEM and NAGH within Control, BD-1047 and Rimcazole groups, respectively. Pound symbols indicate significant difference between Control, BD-1047 and Rimcazole within DMEM and NAGH groups, respectively. P<0.05 and n=24 for all groups.
as §1, with “8A illustrates the concentration-response” for “8 is a series of images confirming NAGH acts as a sigma receptor agonist. A) Concentration-response”, “FIG. 8B depicts a bar” for “B) Bar”

[3] = system: rats following MCAO; assay: Battery of behavioral tests after MCAO (corner, grip, rotorod, step, cylinder); type: in vivo, rat; settings: 30 days after MCAO
Experimental: After surgery, animals were tested was performed once before surgery and 30 days post-surgery for motor coordination and behavior. All behavioral data are reported as mean+sem.
Rotorod test, which measures motor coordination, was conducted using Omni-rotor Rotorod (Omnitech, Inc). Animals were trained on the accelerating rotorod apparatus for 3 consecutive days before times were collected. Animals were placed on the revolving rod and instrument was set to accelerate to a maximum speed of 40 rpm over 180 seconds. Latency to fall (in seconds) was recorded. This test was performed in triplicate once per day for 3 days.
Rats were held tightly with one forelimb placed on a hard flat table top and then pulled for a length of 1 meter in the direction of the placed forelimb at constant velocity. The test was repeated with the opposite forelimb. This was repeated three times for each forelimb and the percent of contralateral forelimb paw was obtained. The bias was standardized as the absolute number of steps with the contralateral paw minus 100.
The animals were placed in a transparent cylinder about 20 cm in diameter and 30 cm in height with an open top. The number times each paw was placed on the sides of the cylinder was counted a5 minute period. The test was videotaped and a mirror was placed behind the cylinder allowing the experimenter to see the placement of paws when the animal was facing away from the camera.
A 30 degree angle was formed using the edges of two plexiglass boards. The animals were placed halfway into the corner facing the corner and the total number of left and right turns was recorded. A total of 10 trials were conducted and videotaped. A non-lesioned animal turned randomly toward the left or right, while a lesioned animal preferentially turned toward the non-impaired (left) side. Results were reported as the percentage of ipsilateral (injury site, right side) versus contralateral turns.
Motor deficits were assessed using a grip strength meter (Bioseb, # BIO-GS3). […] Grip strength was recorded in Newtons (N). […]

[4] = migration evoked by 100 μM ATP, two-component Langmuir-Hill fit

Compound: Cl.N=C(Nc1cccc2ccccc12)Nc1cccc2ccccc12 [NAGH, N,N′-di-1-Naphthylguanidine hydrochloride]
- Activated microglia (Iba1 positive cells) in peri-infarct and ischemic core vs DMSO [1]: not statistically significant
- Microglial migration ([2]; 100 μM ATP, via σ-1 and σ-2 receptors): blocks microglial migration
- Emax, high affinity component [2, 4]: 0.43
- Emax, low affinity component [2, 4]: 0.57
- Hill coefficient, high affinity component [2, 4]: 2.2
- Hill coefficient, low affinity component [2, 4]: 0.80
- IC50 ([2]; migration evoked by 100 μM ATP, two-component Langmuir-Hill fit, read-out: IC50, high affinity component): 0.75 µM
- IC50 ([2]; read-out: IC50, low affinity component): 84 µM
- Overall behavioral data vs vehicle, all tests except EBST ([3]; NAGH 0.86 mg/kg s.c. x3): no significant differences
- Changes in asymmetry on the cylinder test ([3]; NAGH): failed to gain significance
